We go through 17 compounds from patent US6632824B2, “Aryl-8-azabicyclo[3.2.1]octanes for the treatment of depression” (Wyeth, priority 2001, dated 2003).

Molecules are shown by their SMILES. Where a name gives a salt, the structure may show the parent alone.

One data set deals with T1, Human 5-HT Transporter (Homo sapiens, UniProt P31645).
T1 construct: endogenous in cells; host or cells: JAR human carcinoma cells, treated with staurosporine
The data set can be described thus: Inhibition of 3H-5-HT Uptake by Cells Possessing the Human 5-HT Transporter (HC 5HT Transporter). Format: cell-based. As to the method: On the day of assay, vehicle, excess of fluoxetine, or test compound is added to various wells on the plate. All wells then receive ^3H-5-HT and are incubated at 37° C. for 5 min. The wells are then washed with ice cold 50 mM Tris HCl (pH 7.4) buffer and aspirated to remove free ^3H-5-HT. 25 μl of 0.25 M NaOH is then added to each well to lyse the cells and 75 μl scintillation cocktail (Microscint™ 20) added prior to quantitation on a Packard TopCount machine. Tubes with vehicle represent total possible uptake; radioactivity counted in tubes with fluoxetine represent nonspecific binding/uptake and is subtracted from the total possible uptake to give total possible specific uptake. […] Specific uptake is then expressed as a % of control values and is analyzed using nonlinear regression analysis (Prizm) to determine IC50 values.

In another data set the target is T2, 5-HT transporter (Rattus norvegicus, UniProt P31652).
T2 construct: frontal cortical membranes prepared from male S.D. rats; from tissue; host or cells: rat frontal cortex membranes (male Sprague-Dawley)
In words: Rat Brain 3H-Paroxetine Binding Assay (RB 5HT Transporter). The procedure:
Rat Brain ^3H-Paroxetine Binding Assay (RB 5HT Transporter):
This assay is used to determine a compound's affinity of the 5-HT transporter.
Briefly, frontal cortical membranes prepared from male S.D. rats are incubated with ^3H-parxetine (0.1 nM) for 60 min. at 25° C. All tubes contain either vehicle, test compound (one to eight concentrations), or a saturating concentration of fluoxetine (10 μM) to define […]. All reactions are terminated by the addition of ice cold Tris buffer followed by rapid filtration using a Tom Tech filtration device to separate bound from free ^3H-paroxetine.

The target in the next data set is T3, human 5-HT1A receptor (Homo sapiens, UniProt P08908).
T3 construct: expressed in transfected cells
T3 sequence (P08908 1-422): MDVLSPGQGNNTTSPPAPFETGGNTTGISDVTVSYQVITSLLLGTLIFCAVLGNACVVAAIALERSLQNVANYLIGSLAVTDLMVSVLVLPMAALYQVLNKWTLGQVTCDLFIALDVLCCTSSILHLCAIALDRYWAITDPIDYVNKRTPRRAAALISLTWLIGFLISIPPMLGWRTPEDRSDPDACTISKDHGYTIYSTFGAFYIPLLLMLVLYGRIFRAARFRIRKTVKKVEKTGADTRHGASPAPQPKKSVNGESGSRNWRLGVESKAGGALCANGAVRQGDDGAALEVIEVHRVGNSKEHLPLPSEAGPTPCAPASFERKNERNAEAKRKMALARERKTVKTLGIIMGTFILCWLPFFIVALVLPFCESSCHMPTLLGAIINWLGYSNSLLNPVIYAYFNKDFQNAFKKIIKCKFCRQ
In words: HC 5-HT1A binding assay ([3H]8-OH-DPAT radioligand binding, h5-HT1A.CHO cell membranes). The procedure:
Cloning of Human 5-HT1A Receptor:
A stable Chinese hamster ovary cell line expressing the human 5-HT1A receptor subtype (h5-HT1A.CHO cells) is employed throughout this study. Cells are maintained in DMEM supplemented with 10% fetal calf serum, non-essential amino acids and penicillin/streptomycin.
Cells are grown to 95-100% confluency as a monolayer before membranes are harvested for binding studies. Cells are gently scraped from the culture plates, transferred to centrifuge tubes, and washed twice by centrifugation (2000 rpm for 10 min., 4° C.) in buffer (50 mM Tris; pH 7.5). The resulting pellets are aliquoted and placed at −80 C. On the day of assay, the cells are thawed on ice, and resuspended in buffer. Studies are conducted using [^3H]8-OH-DPAT as the radioligand. The binding assay is performed in 96-well microtiter plates in a final total volume of […] of buffer. […] Non-specific binding is determined in the presence of 10 μM 5HT. Saturation analysis is conducted by using [^3H]8-OH-DPAT at concentrations ranging from 0.3-30 nM. Following a 30 minute incubation at room temperature, the reaction is terminated by the addition of ice cold buffer and rapid filtration using a M-96 Brandel Cell Harvester (Gaithersburg, Md.) through a GF/B filter presoaked for 30 minutes in 0.5% polyethyleneimine.
^3H-Paroxetine Binding to Assess Affinity of Drugs for the Serotonin Transporter ([…]):
Briefly, frontal cortical membranes prepared from male S.D. rats are incubated with ^3H-paroxetine (0.1 nM) for 60 min at 25° C. All tubes contain either vehicle, test compound (one to eight concentrations), or a saturating concentration of fluoxetine (10 μM) to define […]. All reactions are terminated by the addition of ice cold Tris buffer followed by rapid filtration using a Tom Tech filtration device to separate bound from free ^3H-paroxetine.

Data set [1] concerns the target T4, cloned human 5-HT1A receptors (Homo sapiens, UniProt P08908).
T4 construct: expressed in transfected cells
T4 sequence (P08908 1-422): T3 sequence (P08908 1-422)
In words: Assessment of agonism/antagonism at the 5-HT1A receptor using [35S]-GTPγS binding. Format: biochemical. As to the method:
Assessment of Agonism/Antagonism at the 5-HT1A Receptor using [^35S]-GTPγS Binding to Cloned Human 5-HT1A Receptors:
Briefly, 5-HT1A cloned receptor membrane fragments (as used for 5-HT1A receptor binding assays) are stored at −70° C. until needed. When needed, membranes are rapidly thawed, centrifuged at 40,000× g for 10 minutes and resuspended at 4° C. for 10 minutes in assay buffer (25 mM HEPES, 3 mM MgCl2, 100 mM NaCl, 1 mM EDTA, 10 uM GDP, […], pH 8.0). These membranes are then incubated for 30 min at 30° C. with [^35S]GTPgS (1 nM) in the presence of vehicle, test compound (one to eight concentrations), or excess 8-OH-DPAT to define maximum agonist response. All reactions are terminated by the addition of ice cold Tris buffer followed by rapid filtration using a Tom Tech® filtration device to separate bound from free [^35S]GTPgS. Agonists produce an increase in the amount of [^35S]GTPgS bound whereas antagonists produce no increase in binding. Bound radioactivity is counted and analyzed as above.

T1 sequence (P31645 whole entry): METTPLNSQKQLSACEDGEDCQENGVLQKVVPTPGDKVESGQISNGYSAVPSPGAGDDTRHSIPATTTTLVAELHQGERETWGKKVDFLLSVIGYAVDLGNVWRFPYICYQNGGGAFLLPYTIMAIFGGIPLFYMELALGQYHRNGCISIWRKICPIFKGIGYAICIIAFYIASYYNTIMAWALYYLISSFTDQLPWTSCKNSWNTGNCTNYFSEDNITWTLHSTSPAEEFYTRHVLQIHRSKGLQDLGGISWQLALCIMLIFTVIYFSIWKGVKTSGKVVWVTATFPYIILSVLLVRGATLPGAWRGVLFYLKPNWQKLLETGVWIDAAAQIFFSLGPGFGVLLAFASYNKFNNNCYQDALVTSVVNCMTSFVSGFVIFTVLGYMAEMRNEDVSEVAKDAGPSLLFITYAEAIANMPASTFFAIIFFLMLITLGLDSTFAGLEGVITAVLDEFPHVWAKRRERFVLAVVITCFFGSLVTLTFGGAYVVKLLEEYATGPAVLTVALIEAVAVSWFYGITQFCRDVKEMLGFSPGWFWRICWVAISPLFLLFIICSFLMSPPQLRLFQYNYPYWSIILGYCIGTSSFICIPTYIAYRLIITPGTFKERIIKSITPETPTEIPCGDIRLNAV
T2 sequence (P31652 whole entry): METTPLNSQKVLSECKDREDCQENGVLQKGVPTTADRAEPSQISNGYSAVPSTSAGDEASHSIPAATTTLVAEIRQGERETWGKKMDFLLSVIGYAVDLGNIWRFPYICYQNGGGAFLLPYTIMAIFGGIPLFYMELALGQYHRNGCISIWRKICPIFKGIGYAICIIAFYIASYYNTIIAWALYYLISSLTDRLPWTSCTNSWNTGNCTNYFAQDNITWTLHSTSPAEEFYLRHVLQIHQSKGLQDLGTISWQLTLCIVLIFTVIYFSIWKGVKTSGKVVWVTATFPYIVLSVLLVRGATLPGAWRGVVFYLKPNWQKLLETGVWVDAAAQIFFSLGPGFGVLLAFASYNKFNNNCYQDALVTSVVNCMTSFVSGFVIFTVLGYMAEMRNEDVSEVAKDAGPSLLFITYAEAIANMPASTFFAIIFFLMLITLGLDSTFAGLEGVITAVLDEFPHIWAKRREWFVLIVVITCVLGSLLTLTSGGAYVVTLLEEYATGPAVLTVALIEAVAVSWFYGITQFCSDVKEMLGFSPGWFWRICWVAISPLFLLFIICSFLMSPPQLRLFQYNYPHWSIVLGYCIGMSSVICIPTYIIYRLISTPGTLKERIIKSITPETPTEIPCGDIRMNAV

Turning to `COc1cc(NCCN2C3C=C(c4ccc5ccccc5c4)CC2CC3)c2ncccc2c1` (stereo not drawn) (as salt: oxalate) [Example 5, 6-Methoxy-N-{2-[3-(2-naphthyl)-8-azabicyclo[3.2.1]oct-2-en-8-yl]ethyl}-8-quinolinamine], the melting point (usually the temperature of the solid-liquid transition) is 179 to 182 °C. As to `C1=C(c2c[nH]c3ccccc23)CC2CCC1N2CCOc1cccc2ncccc12` (stereo not drawn) (as salt: oxalate) [Example 3, 2-[3-(1H-Indol-3-yl)-8-azabicyclo[3.2.1]oct-2-en-8-yl]ethyl 5-quinolinyl Ether], the melting point is 91 to 93 °C (dec.). On to `FC(F)(F)c1cccc(OCCN2C3C=C(c4ccc5ccccc5c4)CC2CC3)c1` (stereo not drawn) [Example 11, 3-Naphthalen-2-yl-8-[2-(3-trifluoromethyl-phenoxy)-ethyl]-8-aza-bicyclo[3.2.1]oct-2-ene], for which the IC50 (usually the midpoint of a concentration-inhibition curve) on Human 5-HT Transporter turned out to be 191 nM. In addition, the Ki (in general, a dissociation constant, usually derived from enzyme kinetics or from competition with a known ligand) at 5-HT transporter came to 34 nM. The compound `Clc1cc(NCCN2C3C=C(c4ccc5ccccc5c4)CC2CC3)c2ncccc2c1` (stereo not drawn) [Example 6, 6-Chloro-N-{2-[3-(2-naphthyl)-8-azabicyclo[3.2.1]oct-2-en-8-yl]ethyl}-8-quinolinamine] had a melting point of 205 to 206 °C. For the same compound, the Ki at 5-HT transporter came out at 7.5 nM. Consider `C1=C(c2ccc3ccccc3c2)CC2CCC1N2CCOc1cccc2c1OCCO2` (stereo not drawn) [Example 4, 8-[2-(2,3-Dihydro-benzo[1,4]dioxin-5-yloxy)-ethyl]-3-naphthalen-2-yl-8-aza-bicyclo[3.2.1]oct-2-ene], for which the Ki on human 5-HT1A receptor turned out to be 329 nM; at 5-HT transporter, 0.17 nM. The compound also gave an IC50 against Human 5-HT Transporter of 21.7 nM. In the case of `c1ccc2cc(C3CC4CCC(C3)N4CCOc3cccc4[nH]ccc34)ccc2c1` (stereo not drawn) [Example 12, 4-[2-(3-Naphthalen-2-yl-8-aza-bicyclo[3.2.1]oct-8-yl)-ethoxy]-1H-indole], half-maximal inhibition on Human 5-HT Transporter (IC50) required 35.7 nM. Further, the Ki on 5-HT transporter stood at 0.39 nM. Turning to `c1ccc2cc(C3CC4CCC(C3)N4CCOc3cccc4cccnc34)ccc2c1` (stereo not drawn) [Example 17, 8-{2-[3-(2-Naphthyl)-8-azabicyclo[3.2.1]oct-8-yl]ethoxy}quinoline], the melting point is 110 to 113 °C. This compound also had a Ki at 5-HT transporter of 0.13 nM. Turning to `C1=C(c2ccc3ccccc3c2)CC2CCC1N2CCNc1cccc2cccnc12` (stereo not drawn) [Example 7, N-{2-[3-(2-Naphthyl)-8-azabicyclo[3.2.1]oct-2-en-8-yl]ethyl}-8-quinolinamine], the melting point lay within 199 to 200 °C. This compound showed an inhibitory constant (Ki) on 5-HT transporter of 1.61 nM.

On to `COc1ccc2cc(C3=CC4CCC(C3)N4CCOc3cccc4[nH]ccc34)ccc2c1` (stereo not drawn) [Example 10, 4-{2-[3-(6-Methoxy-naphthalen-2-yl)-8-aza-bicyclo[3.2.1]oct-2-en-8-yl]-ethoxy}-1H-indole], for which half-maximal inhibition against Human 5-HT Transporter (IC50) was put at 58.6 nM. On 5-HT transporter, this compound showed a Ki of 1.11 nM. For `COc1ccc2cc(C3=CC4CCC(C3)N4CCOc3cccc4[nH]ccc34)ccc2c1` (stereo not drawn) (as salt: oxalate) [Example 10, 4-{2-[3-(6-Methoxy-naphthalen-2-yl)-8-aza-bicyclo[3.2.1]oct-2-en-8-yl]-ethoxy}-1H-indole], the melting point is 130 to 132 °C (dec.). On to `FC(F)(F)c1cccc(OCCN2C3C=C(c4ccc5ccccc5c4)CC2CC3)c1` (stereo not drawn) (as salt: oxalate) [Example 11, 3-Naphthalen-2-yl-8-[2-(3-trifluoromethyl-phenoxy)-ethyl]-8-aza-bicyclo[3.2.1]oct-2-ene], for which the melting point is 128 to 130 °C (dec.). As for `c1ccc2cc(C3CC4CCC(C3)N4CCOc3cccc4[nH]ccc34)ccc2c1` (stereo not drawn) (as salt: oxalate) [Example 12, 4-[2-(3-Naphthalen-2-yl-8-aza-bicyclo[3.2.1]oct-8-yl)-ethoxy]-1H-indole], the melting point was 119 to 120 °C (dec.). At Human 5-HT Transporter, `COc1cc(NCCN2C3C=C(c4ccc5ccccc5c4)CC2CC3)c2ncccc2c1` (stereo not drawn) [Example 5, 6-Methoxy-N-{2-[3-(2-naphthyl)-8-azabicyclo[3.2.1]oct-2-en-8-yl]ethyl}-8-quinolinamine] showed an IC50 of 42.8 nM. This compound came in with a Ki on 5-HT transporter of 2.67 nM. Compound `c1ccc2cc(C3CC4CCC(C3)N4CCSc3cccc4cccnc34)ccc2c1` (stereo not drawn) [Example 18, 8-({2-[3-(2-Naphthyl)-8-azabicyclo[3.2.1]oct-8-yl]ethyl}sulfanyl)quinoline] registered a melting point of 200 to 203 °C. At human 5-HT1A receptor, this compound gave a Ki of 256 nM. Also, at Human 5-HT Transporter, the concentration for half-maximal inhibition (IC50) turned out to be 3.5 nM. The Ki at 5-HT transporter came to 0.06 nM. As for `COc1cc(OCCN2C3C=C(c4ccc5ccccc5c4)CC2CC3)c2ncccc2c1` (stereo not drawn) (as salt: oxalate), the melting point was in the range of 100 to 103 °C. Consider `C1=C(c2ccc3ccccc3c2)CC2CCC1N2CCOc1cccc2c1OCCO2` (stereo not drawn) (as salt: oxalate) [Example 4, 8-[2-(2,3-Dihydro-benzo[1,4]dioxin-5-yloxy)-ethyl]-3-naphthalen-2-yl-8-aza-bicyclo[3.2.1]oct-2-ene], for which the melting point is 151 to 153 °C (dec.). Take `C1=C(c2c[nH]c3ccccc23)CC2CCC1N2CCOc1cccc2ncccc12` (stereo not drawn) [Example 3, 2-[3-(1H-Indol-3-yl)-8-azabicyclo[3.2.1]oct-2-en-8-yl]ethyl 5-quinolinyl Ether]: the IC50 in data set [1] is 1170 nM; against Human 5-HT Transporter, 86.5 nM. For the same compound, the Emax (commonly the greatest response seen or fitted, relative to the assay's reference) in data set [1] (excess 8-OH-DPAT defines maximum agonist response, read-out: [35S]GTPgS Emax) was determined as 0%. Further, the Ki was found to be 173 nM on human 5-HT1A receptor and 2.27 nM on 5-HT transporter.
